According to US9512121B2, “[1,2,4] triazol [4,3-A] pyridine derivative, preparation method therefor or medical application thereof” (Jiangsu Hansoh Pharmaceutical Co., Ltd., priority 2013, dated 2016):

Tests used:
[1] = Pharmacokinetic test in rats after intragastric administration (LC/MS/MS of plasma); type: in vivo, Sprague-Dawley (SD) rats; conditions: SD rats, protocol 10.0 mg/kg; for Vd/F / AUC / CL/F / half-life / MRT / Cmax: both sexes, Sprague-Dawley, rat, plasma, po; for Vd/F: read-out: Apparent Distribution Volume Vz/F; for AUC: read-out: Area Under Curve AUC; for CL/F: read-out: Clearance CL/F; for half-life: read-out: Half life t1/2 (converted); for MRT: read-out: Mean Residence Time MRT; for Cmax: read-out: Plasma Conc. Cmax
Experimental: Rats were used as test animals. A LC/MS/MS method was used to determine drug concentration in plasma at different time points after the rats were administered the compounds of Examples 3, 22 and 28 intragastrically. The pharmacokinetic behavior of the compounds of the present invention was studied and evaluated in rats.
Eight healthy adult Sprague-Dawley (SD) rats, half male and half female, were divided into 2 groups with 4 rats in each group. The animals were purchased from SINO-BRITISH SIPPR/BK LAB. ANIMAL LTD., CO, Certificate No.: SCXK (Shanghai) 2008-0016.
A certain amount of test compounds was weighed. 1.0 mL of dimethyl sulfoxide was added to dissolve the compounds. Normal saline was added to prepare a 1.0 mg/mL solution. The concentration of DMSO was kept at 5%. […]
Compounds of Example 3, 22 and 28 were administered intragastrically to rats. Blood samples (0.1 mL) were taken from the orbital sinus before the administration, and at 0.5, 1.0, 2.0, 3.0, 4.0, 6.0, 8.0, 12.0, 24.0, and 36.0 hours after administration. The blood sample was placed in a heparinized tube, and then centrifuged for 10 minutes at 4° C., at 10000 rpm to separate blood plasma. The plasma samples were stored at −20° C. The rats were fed 2 hours after compound administration.
Content determination of the test compounds in rat plasma after intragastrically administering at different concentrations: 50 μL of rat plasma taken at various time points after administration were mixed with 50 μL of internal standard solution and 100 μL of methanol, and mixed for 3 minutes by a vortexer. The mixture was centrifuged for 10 minutes at 13,500 rpm. 10 μL of the supernatant were taken from the plasma sample and analyzed by LC-MS/MS.

[2] = cited from earlier work
[3] = system: hepatocellular carcinoma cell lines HCCLM3, MHCC97-H, MHCC97-L, and stomach cancer cell lines SNU5, MKN-45; experiment: Growth inhibition of cancer cell lines (CellTiter-Glo, 72 hours); conditions: read-out: Half inhibitory concentration (IC50), cell activity
Experimental: The purpose is to measure the growth inhibition effect of the compound on hepatocellular carcinoma cell lines HCCLM3, MHCC97-H, MHCC97-L, and stomach cancer cell lines SNU5, MKN-45.
The positive control and the test compounds were firstly dissolved in 100% dimethyl sulfoxide to prepare a 20 mM stock solution, which was stored at −20° C. in a refrigerator. Before the experiment, the above stock solution was diluted with culture medium containing 0.6% dimethyl sulfoxide to prepare a 20× fold solution for each test concentration.
(1) To each well of 96-well plate was added 100 μl culture medium containing 2000 cells (HCCLM3/MHCC97-H/MHCC97-L was cultured in DMEM plus 10% FBS; SNU5 was cultured in IMDM plus 10% FBS; and MKN45 was cultured in RPMI1640 plus 10% GFBS). The plate was incubated in a 5% CO2 incubator overnight.
(2) 20 μl diluted positive control or test compounds were added to each well, with two duplicate wells for each dilution. To the blank well and the control well were each added 20 μl culture medium containing 0.6% dimethyl sulfoxide. […]
(5) BioTek microplate reader was used to measure the luminescence signal of each well.
(6) Using GraphPad software, a non-linear regression curve was generated based on the inhibition ratio as a function of the concentration of the compounds. The IC50 was calculated using a S-shaped dose-effect curve fitting.

c-MET tyrosine kinase = c-MET tyrosine kinase (Homo sapiens (Human), UniProt P08581); experiment: c-MET tyrosine kinase enzyme activity (inhibition of phosphorylation, fluorescence); conditions: read-out: Half inhibitory concentration (IC50) on the receptor tyrosine kinase c-MET, enzyme activity
c-MET tyrosine kinase, sequence (P08581 25-1390): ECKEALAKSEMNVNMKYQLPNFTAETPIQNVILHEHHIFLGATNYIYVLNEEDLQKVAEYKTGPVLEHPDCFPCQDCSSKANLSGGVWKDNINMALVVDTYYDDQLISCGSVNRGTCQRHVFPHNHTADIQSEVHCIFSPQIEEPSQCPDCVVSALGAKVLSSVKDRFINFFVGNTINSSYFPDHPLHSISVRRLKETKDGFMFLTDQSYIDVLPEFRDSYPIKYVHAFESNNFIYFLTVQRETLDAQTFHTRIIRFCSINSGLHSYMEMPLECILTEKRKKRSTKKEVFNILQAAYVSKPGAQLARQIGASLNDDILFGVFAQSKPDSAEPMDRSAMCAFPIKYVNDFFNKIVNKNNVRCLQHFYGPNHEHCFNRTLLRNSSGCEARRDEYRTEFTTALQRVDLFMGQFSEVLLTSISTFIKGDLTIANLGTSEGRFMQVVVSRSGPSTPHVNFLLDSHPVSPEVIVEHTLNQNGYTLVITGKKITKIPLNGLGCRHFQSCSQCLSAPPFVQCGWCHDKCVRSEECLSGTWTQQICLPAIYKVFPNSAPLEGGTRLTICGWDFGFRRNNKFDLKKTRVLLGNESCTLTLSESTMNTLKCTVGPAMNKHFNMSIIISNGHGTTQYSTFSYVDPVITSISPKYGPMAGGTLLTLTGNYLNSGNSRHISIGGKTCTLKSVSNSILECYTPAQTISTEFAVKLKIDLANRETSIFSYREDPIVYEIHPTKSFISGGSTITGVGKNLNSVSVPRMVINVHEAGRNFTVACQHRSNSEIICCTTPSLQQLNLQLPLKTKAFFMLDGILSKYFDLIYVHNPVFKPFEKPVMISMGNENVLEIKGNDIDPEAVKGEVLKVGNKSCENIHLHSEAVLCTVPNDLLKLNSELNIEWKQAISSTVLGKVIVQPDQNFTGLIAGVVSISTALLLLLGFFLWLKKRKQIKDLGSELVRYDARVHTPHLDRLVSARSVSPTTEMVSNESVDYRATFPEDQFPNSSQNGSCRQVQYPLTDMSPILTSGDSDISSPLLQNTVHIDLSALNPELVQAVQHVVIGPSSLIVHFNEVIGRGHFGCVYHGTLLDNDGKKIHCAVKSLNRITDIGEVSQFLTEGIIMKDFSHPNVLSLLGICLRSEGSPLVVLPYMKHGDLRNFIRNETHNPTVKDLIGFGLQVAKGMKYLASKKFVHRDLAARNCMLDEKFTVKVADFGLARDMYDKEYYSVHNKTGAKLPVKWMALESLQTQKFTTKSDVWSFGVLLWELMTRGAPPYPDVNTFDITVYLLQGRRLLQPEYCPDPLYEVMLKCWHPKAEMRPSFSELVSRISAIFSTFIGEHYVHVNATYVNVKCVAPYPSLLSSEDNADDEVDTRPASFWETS
Experimental: The average inhibition rate of kinase and IC50 values were determined by a NovoStar microplate reader (BMG Co., Germany).
The purpose is to study the effect of the compounds on c-MET tyrosine kinase activity at the molecular level. IC50 values were calculated from the data of the inhibition rates of the compounds on c-MET tyrosine kinase phosphorylation at various concentrations, thereby evaluating the compounds.
The positive control and the test compounds were first dissolved in 100% dimethyl sulfoxide to prepare a 20 mM stock solution, which was stored at −20° C. in a freezer.
Just before the experiment, the above stock solution was diluted to a final concentration of 4% in dimethyl sulfoxide.
According to the need of dilution ratio, endonuclease was diluted in display buffer B.
All of the compounds were diluted within a 96-well plate.
The plate was incubated at room temperature for 1 hour.
5 μL display buffer were added, and the plate was incubated at room temperature for another 1 hour.
Using GraphPad software, a non-linear regression curve was generated based on the inhibition ratio as a function of the concentration of the compounds. The IC50 was calculated using a S-shaped dose-effect curve fitting.

Structure (SMILES)	Vd/F [1] [L/kg]	AUC [1] [ng·h/mL]	CL/F [1] [mL/min/kg]	half-life [1] [h]	MRT [1] [h]	Cmax [1] [ng/mL]	outcome of clinical trials (toxicity) [2]	IC50 [3] [nM]	IC50 (c-MET tyrosine kinase) [nM]	other results
Cn1cc(-c2cc(F)c3nnc(Sc4ccc5ncc6c(c5c4)OCCO6)n3c2)cn1 [Example 3, 9-((8-fluoro-6-(1-methyl-1H-pyrazol-4-yl)-[1,2,4]triazolo[4,3-a]pyridin-3-yl)thio)-2,3-dihydro-[1,4]dioxino[2,3-c]quinoline]	0.667 ± 0.087	79300 ± 40700	1.33 ± 0.76	7.54 ± 4.56	11.6 ± 5.8	5000 ± 957	–	–	–	–
Cn1cc(-c2ccc3nnc(C(F)(F)c4ccc5ncccc5c4)n3n2)cn1 [JNJ-38877605, reference compound]	–	–	–	–	–	–	discontinued in clinical trials due to renal toxicity	–	–	Apparent Distribution Volume Vz/F [1]: 1.48 ± 0.613 L/kg; Area Under Curve AUC [1]: 17325 ± 9505 ng·h/mL; Clearance CL/F [1]: 5.81 ± 2.54 mL/min/kg; Half life t1/2 [1]: 2.97 ± 0.25 h; Mean Residence Time MRT [1]: 4.90 ± 0.62 h; Plasma Conc. Cmax [1]: 2373 ± 1444 ng/mL
CN1C(=O)COc2c1cnc1ccc(Sc3nnc4c(OC(F)F)cc(-c5cnn(C)c5)cn34)cc21 [Example 13, 9-((8-(difluoromethoxy)-6-(1-methyl-1H-pyrazol-4-yl)-[1,2,4]triazolo[4,3-a]pyridin-3-yl)thio)-4-methyl-2H-[1,4]oxazino[3,2-c]quinolin-3(4H)-one]	–	–	–	–	–	–	–	> 1000	> 1000	–
CN1C(=O)COc2c1cnc1ccc(Sc3nnc4c(F)cc(-c5cnn(C)c5)cn34)cc21 [Example 22, 9-((8-fluoro-6-(1-methyl-1H-pyrazol-4-yl)-[1,2,4]triazolo[4,3-a]pyridin-3-yl)thio)-4-methyl-2H-[1,4]oxazino[3,2-c]quinolin-3(4H)-one]	0.327 ± 0.037	122000 ± 13900	0.686 ± 0.071	5.55 ± 0.78	9.1 ± 0.85	8630 ± 592	–	2	2.9	–
Cn1cc(-c2ccc3nnc(Sc4ccc5ncccc5c4)n3n2)cn1 [SNG-523]	–	–	–	–	–	–	discontinued in clinical trials due to renal toxicity	–	–	–
Cn1cc(-c2ccc3nnc(Sc4ccc5ncc(N6CCOCC6)c(F)c5c4)n3c2)cn1 [Example 28, 4-(4-fluoro-6-((6-(1-methyl-1H-pyrazol-4-yl)-[1,2,4]triazolo[4,3-a]pyridin-3-yl)thio)quinolin-3-yl)morpholine]	1.13 ± 0.79	30900 ± 25500	4.06 ± 2.4	3.13 ± 0.54	5.17 ± 0.95	3600 ± 1820	–	–	–	–
